Laboratory results published in PMC11472313, “Development of Fragment-Based Inhibitors of the Bacterial Deacetylase LpxC with Low Nanomolar Activity” (Journal of Medicinal Chemistry, 2024).
≈ marks a conversion by molar mass, not a printed value.

Columns and labels:
E. coli D22 [1] = test: MIC, broth microdilution; assay type: cell-based; settings: Escherichia coli, 20 h, 37 °C, LB
Method: (§1) Besides measuring the inhibitory activities toward E. coli LpxC C63A, the antibacterial activities of the synthesized hydroxamic acids were evaluated by determining their minimal inhibitory concentrations (MIC) in broth dilution tests as well as by performing disc diffusion assays (Table 1).
(§2) The MIC values of the compounds were determined by means of the microdilution method using 96-well plates.
(§3) The overnight suspension was diluted 1:1000 in fresh LB. 10 μL of a 2-fold dilution series of the compounds in DMSO and 90 μL of LB were dispensed to each well of a 96-well plate. Then, 100 μL of the inoculated medium was added, resulting in 5 × 10^5 cfu mL^–1, 5% DMSO, and a final concentration range of the test compounds between 64 and 0.016 μg mL^–1. The plates were incubated for 20 h at 37 °C. The MIC was defined as the lowest concentration of the compounds that prevented visible growth after incubation. Each assay was performed at least three times on separate days.

E. coli BL21(DE3) [2] = test: MIC, broth microdilution; assay type: cell-based; settings: Escherichia coli, 20 h, 37 °C, LB
Method: as §1, §2, §3

E. coli D22 [3] = test: disc diffusion assay; assay type: cell-based; settings: 0.15 μmol per 6 mm disc
Method: as §1
(§4) The disc diffusion assays against E. coli BL21(DE3) and the defective strain E. coli D22 were performed as follows: liquid cultures of the bacteria were grown overnight in lysogeny broth (LB)[73] at 37 °C and 200 rpm. 150 μL of an overnight cell suspension was spread evenly onto LB agar plates. 0.15 μmol of each compound (dissolved in 10 or 15 μL DMSO) were applied onto circular filter paper (Ø = 6 mm, Cytiva). Pure DMSO, serving as a negative control, and CHIR-090, serving as a positive control, were also spotted. The agar plates were incubated overnight at 37 °C, and the diameter of the zone of growth inhibition was measured for each compound. Each assay was performed at least three times on separate days.

E. coli BL21(DE3) [4] = test: disc diffusion assay; assay type: cell-based; settings: 0.15 μmol per 6 mm disc
Method: as §1, §4

E. coli LpxC C63A = target: T1, E. coli LpxC C63A (Escherichia coli, UniProt P0A725, C63A); test: fluorescence-based E. coli LpxC C63A enzyme inhibition assay; assay type: biochemical; settings: Ki E. coli LpxC C63A, from IC50 via Cheng–Prusoff
T1 construct: made in house; host or cells: E. coli BL21(DE3)
T1 sequence (P0A725 whole entry C63A): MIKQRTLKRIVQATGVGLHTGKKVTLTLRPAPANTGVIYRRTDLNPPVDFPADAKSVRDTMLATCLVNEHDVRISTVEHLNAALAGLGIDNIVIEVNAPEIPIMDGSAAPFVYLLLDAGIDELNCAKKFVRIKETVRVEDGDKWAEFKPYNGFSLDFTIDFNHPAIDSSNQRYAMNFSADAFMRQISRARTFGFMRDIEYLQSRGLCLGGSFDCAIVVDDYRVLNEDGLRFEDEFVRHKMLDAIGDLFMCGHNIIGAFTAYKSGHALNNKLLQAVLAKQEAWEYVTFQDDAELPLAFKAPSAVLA
Method: In order to determine the inhibitory activities of the compounds of interest toward E. coli LpxC, a fluorescence-based enzyme assay was deployed, in which the formed deacetylated natural product UDP-3-O-[(R)-3-hydroxymyristoyl]glucosamine (2) is transformed into a fluorescent isoindole with o-phthaldialdehyde and 2-mercaptoethanol.[48],[49] […] The KM of E. coli LpxC C63A was determined experimentally using a mass spectrometry-based LpxC assay (Figure S8, Supporting Information, vide infra).
A fluorescence-based microplate assay for LpxC activity was performed as described by Clements et al.[48] The wells in a black, nonbinding, 96-well fluorescence microplate (Greiner Bio One, Frickenhausen) were filled with 93 μL of 26.9 μM UDP-3-O-[(R)-3-hydroxymyristoyl]-N-acetylglucosamine in assay buffer [40 mM sodium morpholinoethanesulfonic acid (pH 6.0), 80 μM dithiothreitol, 0.02% Brij 35]. In order to assay the inhibitors at final concentrations from 20 nM up to 20 μM, 2 μL of a respective dilution of the compounds in DMSO were added. The addition of 5 μL of a solution of purified LpxC (10 μg mL^–1) in assay buffer led to final concentrations of 25 μM UDP-3-O-[(R)-3-hydroxymyristoyl]-N-acetylglucosamine, 15 nM E. coli LpxC C63A, 2% DMSO, and from 20 nM up to 20 μM inhibitor. The microplate was incubated for 30 min at 37 °C in a plate shaker. Then, the biochemical reaction was stopped by adding 40 μL of 0.625 M sodium hydroxide. The reaction mixture was further incubated for 10 min and neutralized by adding 40 μL of 0.625 M acetic acid. The deacetylated product UDP-3-O-[(R)-3-hydroxymyristoyl]glucosamine was converted into a fluorescing isoindole by adding 120 μL of an o-phthaldialdehyde-2-mercaptoethanol solution, which was prepared by dissolving 10 mg of o-phthaldialdehyde in 1 mL of methanol, diluting the mixture with 24 mL of a sodium borate buffer (0.1 M), and finally adding 2.5 μL of 2-mercaptoethanol.[49] Fluorescence was measured with a TriStar^2 S LB 942 plate reader (Berthold, Bad Wildbad) at 340 nm excitation and 460 nm emission wavelengths. Each assay was performed at least three times on separate days. The IC50 values were calculated via Probit-log concentration graphs with the aid of the software Origin and were subsequently converted into Ki values using the Cheng–Prusoff equation.[75],[76]

LasB = target: T2, LasB (Pseudomonas aeruginosa, UniProt Q02RJ6); test: FRET-based LasB in vitro inhibition assay; assay type: biochemical, P. aeruginosa PA14
T2 construct: The elastase LasB of P. aeruginosa is a secreted metalloprotease; endogenous in cells; host or cells: P. aeruginosa PA14 culture supernatant
T2 sequence (Q02RJ6 198-498): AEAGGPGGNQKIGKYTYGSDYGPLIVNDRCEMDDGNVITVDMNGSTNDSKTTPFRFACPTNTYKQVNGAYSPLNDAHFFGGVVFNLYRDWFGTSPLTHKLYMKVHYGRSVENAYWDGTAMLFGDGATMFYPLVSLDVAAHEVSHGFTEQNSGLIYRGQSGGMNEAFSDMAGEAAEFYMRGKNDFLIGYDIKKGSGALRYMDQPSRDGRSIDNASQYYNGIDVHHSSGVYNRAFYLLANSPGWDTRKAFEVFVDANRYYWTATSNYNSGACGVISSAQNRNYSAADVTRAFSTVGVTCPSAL
Method: Purification of LasB from P. aeruginosa PA14 supernatant and the subsequent performance of the FRET-based in vitro inhibition assay was performed as described previously.[66] The TACE (ADAM-17) inhibitor screening kit was purchased from Sigma-Aldrich (Saint Louis, MO). MMPs 1–3 along with the SensoLyte 520 Generic MMP Activity Kit Fluorimetric were purchased from AnaSpec (Fremont, CA, USA). The assays were performed according to the guidelines of the respective manufacturer. Fluorescence signals were measured using a CLARIOstar plate reader (BMG Labtech, Ortenberg, Germany).

LpxC–9 complex = test: NMR-ILOE (interligand NOESY) of fragment hits with LpxC and 9; settings: fragment hits binding the LpxC–9 complex by STD and WaterLogsy; 6 μM LpxC
Method: In order to find fragments specifically addressing the UDP-binding pocket, which can be linked to the LpxC inhibitors, a fragment screen was performed against LpxC bound to 9. First, 650 fragments in cocktails of five were tested for binding to the LpxC–9 complex using STD-NMR and WaterLogsy experiments. Then, fragment hits identified as potential binders were tested one by one against the LpxC–9 complex by STD-NMR and WaterLogsy experiments performed under identical experimental conditions. A total of 97 fragment hits were identified as binders, leading to a hit rate of 15%.
Then, NMR-ILOE experiments were performed with selected fragment hits in the presence of LpxC and the unsubstituted hydroxamic acid 9. This allowed the identification of fragments that bind in the enzyme’s UDP-binding pocket near the methylene group in the α-position of the inhibitor’s hydroxamate moiety. Weak interligand NOESY peaks were observed between inhibitor 9 and nine fragments. By contrast, no interligand NOESY peaks were observed between compound 9 and the other ten fragments. […] Unexpectedly, we also observed interligand NOESY between the fragment protons and protons of the morpholino moiety.
Standard 1D and STD NMR spectra were acquired at 20 °C with a Bruker 600 MHz NMR spectrometer equipped with a 5 mm cryoprobe. Parameters for the STD experiments (saturation frequency and saturation time) were identical for all samples. […] STD saturation time was 2 s. WaterLOGSY mixing time was 1.5 s. Two NOESY experiments were recorded with mixing times of 0.6 and 0.3 s. STD and WaterLOGSY spectra were recorded with the same NMR tubes containing 3 μM LpxC, compound 9 at 500 μM, and fragments at 500 μM. For NOESY experiments, NMR tubes contained 6 μM LpxC.
Temperature was set to 293 K for all NMR experiments.

SMILES	MIC (E. coli D22 [1]) [µg/mL]	MIC (E. coli BL21(DE3) [2]) [µg/mL]	Inhibition zone E. coli D22 (E. coli D22 [3]) [mm]	Inhibition zone E. coli BL21(DE3) (E. coli BL21(DE3) [4]) [mm]	Ki (E. coli LpxC C63A) [µM]	LasB Inhibition at 20 μM (LasB; 20 μM)	inhibition at 20 µM (LasB; read-out: LasB Inhibition at 20 μM) [%]	Inter-Ligand NOESY peaks between the fragment and 9 (LpxC–9 complex)
O=C(NO)[C@@H](COCc1ccccc1)OCc1ccc(C#Cc2ccc(CN3CCOCC3)cc2)cc1 [(R)-11a, (R)-3-(Benzyloxy)-N-hydroxy-2-[(4-{[4-(morpholinomethyl)phenyl]ethynyl}benzyl)oxy]propanamide]	2 (≈ 4 µM)	> 32	15.7 ± 1.2	≤6	3.62 ± 0.64			
O=C(NO)[C@@H](CNCc1ccccc1)OCc1ccc(C#Cc2ccc(CN3CCOCC3)cc2)cc1 [(R)-12a, (R)-3-(Benzylamino)-N-hydroxy-2-[(4-{[4-(morpholinomethyl)phenyl]ethynyl}benzyl)oxy]propanamide]	4 (≈ 8.01 µM)	32 (≈ 64 µM)	20.0 ± 1.8	10.7 ± 1.2	5.9 ± 2.02			
O=C(NC[C@@H](OCc1ccc(C#Cc2ccc(CN3CCOCC3)cc2)cc1)C(=O)NO)c1ccccc1 [(R)-13a, (R)-N-{3-(Hydroxyamino)-2-[(4-{[4-(morpholinomethyl)phenyl]ethynyl}benzyl)oxy]-3-oxopropyl}benzamide]	4 (≈ 7.79 µM)		18.0 ± 2.0	9.7 ± 0.6	2.56 ± 1.08			
O=C(NC[C@@H](OCc1ccc(C#Cc2ccc(CN3CCOCC3)cc2)cc1)C(=O)NO)c1ccc(-c2ccccc2)cc1 [(R)-13b]	> 16	> 16	≤6	≤6	> 2.54			
O=C(NC[C@@H](OCc1ccc(C#Cc2ccc(CN3CCOCC3)cc2)cc1)C(=O)NO)c1cccc(-c2ccccc2)c1 [(R)-13c]	> 16	> 16	≤6	≤6	> 2.54			
O=C(NC[C@@H](OCc1ccc(C#Cc2ccc(CN3CCOCC3)cc2)cc1)C(=O)NO)c1ccc(Oc2ccccc2)cc1 [(R)-13d]	> 16	> 16	≤6	≤6	> 2.54			
O=C(NC[C@@H](OCc1ccc(C#Cc2ccc(CN3CCOCC3)cc2)cc1)C(=O)NO)c1ccc2ccccc2n1 [(R)-13e]	8 (≈ 14.2 µM)	> 16	12.7 ± 1.6	≤6	> 2.54			
O=C(NC[C@@H](OCc1ccc(C#Cc2ccc(CN3CCOCC3)cc2)cc1)C(=O)NO)c1cnc2ccccc2c1 [(R)-13f]	> 16	> 16	10.3 ± 1.2	≤6	> 2.54			
O=C(NC[C@@H](OCc1ccc(C#Cc2ccc(CN3CCOCC3)cc2)cc1)C(=O)NO)c1cc2ccccc2[nH]1 [(R)-13g]	16 (≈ 29 µM)	> 16	9.0 ± 1.0	≤6	> 2.54			
O=C(NC[C@@H](OCc1ccc(C#Cc2ccc(CN3CCOCC3)cc2)cc1)C(=O)NO)c1ccc2[nH]ccc2c1 [(R)-13j]	16 (≈ 29 µM)	> 16	11.7 ± 1.2	≤6	1.15 ± 0.317			
O=C(NC[C@@H](OCc1ccc(C#Cc2ccc(CN3CCOCC3)cc2)cc1)C(=O)NO)c1cc(-c2ccccc2)[nH]n1 [(R)-13m]	> 16	> 16	9.7 ± 1.3	≤6	> 2.54			
Cc1noc(C)c1C(=O)NC[C@@H](OCc1ccc(C#Cc2ccc(CN3CCOCC3)cc2)cc1)C(=O)NO [(R)-13n]	8 (≈ 15 µM)	> 16	16.3 ± 1.6	≤6	> 2.54	no inhibitory activity	< 10	
O=C(NO)[C@@H](CN(Cc1ccccc1)Cc1ccccc1)OCc1ccc(C#Cc2ccc(CN3CCOCC3)cc2)cc1 [(R)-37, (R)-3-(Dibenzylamino)-N-hydroxy-2-[(4-{[4-(morpholinomethyl)phenyl]ethynyl}benzyl)oxy]propanamide]	> 16	> 16	≤6	≤6	> 2.54			
COc1ccc2[nH]ccc2c1 [F1]								yes
Oc1ccc(-n2ccnc2)cc1 [F2]								yes
c1ccc2[nH]ccc2c1 [F3]								yes
NC(=O)Cc1c[nH]c2ccc(Cl)cc12 [F4]								yes
c1ccc2c(c1)CCCN2 [F5]								yes
Nc1cnc2ccccc2c1 [F6]								yes
Nc1c2c(nc3ccccc13)CCCC2 [F7]								no
c1ccc(C2NCCn3cccc32)cc1 (stereo not drawn) [F8]								no
OCc1ccc(-n2cccn2)cc1 [F9]								no
c1ccc(Nc2ccccn2)nc1 [F10]								no
NCc1ccc(-c2ccccc2)cc1 [F11]								yes
c1ccc2[nH]ncc2c1 [F12]								no
